Blank lines part the entries; values can stand above or below the molecule they belong to.
Legend:
[1] = Brain and prostate distribution after single IV in rats; settings: rat, in vivo
[2] = Plasma protein binding by equilibrium dialysis, rat; assay type: in vitro ADME; settings: Rats plasma, 1 uM, equilibrium dialysis 4h 37C
CYP3A = CYP3A induction in human hepatocytes; assay type: in vitro ADME; settings: for CYP3A induction, in words: 1uM; for CYP 3A induction, Positive control, %: human hepatocytes, 48 hours
[3] = Plasma protein binding by equilibrium dialysis, human; assay type: in vitro ADME; settings: 1 uM, equilibrium dialysis 4h 37C
[4] = Drug concentration in plasma and xenograft tumor after 21-day dosing; settings: male, CB17-SCID, mouse, in vivo, 10 mg/kg
[5] = Plasma protein binding by equilibrium dialysis, dog; assay type: in vitro ADME; settings: Dogs plasma, 1 uM, equilibrium dialysis 4h 37C
GABA receptors = settings: read-out: IC50, GABA receptors; ref [6]; cited from earlier work
[6] = 2 mg/kg, Prostate, single IV 2 mg/kg
[7] = 2 mg/kg, brain, single IV 2 mg/kg
[8] = 2 mg/kg, plasma, single IV 2 mg/kg
[9] = 1 mg/kg, Prostate, single IV 1 mg/kg
[10] = 1 mg/kg, brain, single IV 1 mg/kg
[11] = 1 mg/kg, plasma, single IV 1 mg/kg

Kp at 30 min ([1]; 2 mg/kg): 0.39 ± 0.03 | Kp at 120 min ([1]; 2 mg/kg): 0.33 ± 0.16 | concentration at 30 min [1, 6]: 102 ± 4 ng/g | concentration at 120 min [1, 6]: 124 ± 27 ng/g | concentration at 30 min [1, 7]: 164 ± 19 ng/g | concentration at 120 min [1, 7]: 152 ± 31 ng/g | concentration at 30 min [1, 8]: 263 ± 19 ng/mL | concentration at 120 min [1, 8]: 377 ± 153 ng/mL | Bound fraction [2]: 96.4% | CYP3A induction, in words (CYP3A): still active | CYP 3A induction, Positive control, % (CYP3A; 1 uM): 10.0±2.0% | CYP 3A induction, Positive control, % (CYP3A; 10 uM): 73.3±6.8% | Bound fraction [3]: 98.4% | Kp at 24 h [4]: 0.53 ± 0.15 | Bound fraction [5]: 97.3%
SMILES: CNC(=O)c1ccc(N2C(=S)N(c3ccc(C#N)c(C(F)(F)F)c3)C(=O)C2(C)C)cc1F [MDV3100]

Kp at 30 min ([1]; 1 mg/kg): 1.94 ± 0.24 | Kp at 120 min ([1]; 1 mg/kg): 3.15 ± 0.94 | concentration at 30 min [1, 9]: 487 ± 73 ng/g | concentration at 120 min [1, 9]: 482 ± 120 ng/g | concentration at 30 min [1, 10]: 241 ± 21 ng/g | concentration at 120 min [1, 10]: 176 ± 31 ng/g | concentration at 30 min [1, 11]: 251 ± 29 ng/mL | concentration at 120 min [1, 11]: 153 ± 10 ng/mL | CYP3A induction, in words (CYP3A): still active | CYP 3A induction, Positive control, % (CYP3A; 1 uM): 16.3±2.5% | CYP 3A induction, Positive control, % (CYP3A; 10 uM): 102.7±13.0%
SMILES: CNC(=O)c1ccc(N2C(=S)N(c3cnc(C#N)c(C(F)(F)F)c3)C(=O)C23CCC3)cc1F [ARN-509]
IC50 (GABA receptors): 3000 nM

Source: PMC3909768 (Journal of Cancer, 2014)
